Data as given in PMC7031302, “Design and synthesis of new energy restriction mimetic agents: Potent anti-tumor activities of hybrid motifs of aminothiazoles and coumarins” (Scientific Reports, 2020).

Experiments:
HT-29 [1] = assay: Glucose uptake assay, HT-29; type: cell-based, Human; settings: HT-29, 16 h treatment, dose-dependent
Source text: (§1) According to previous studies, ERMAs inhibited glucose utilization in cancer cells[13],[19]. Therefore, we investigated glucose uptake (Fig. 5A) upon treatment with 9b and 9f in HT-29 and HCT116 cells at different concentrations based on the IC50 of each compound. […] This effect is known to result in the accumulation of reactive oxygen species (ROS) and could play a role in glucose deprivation-induced cytotoxicity and oxidative stress in cancer cells. […] The observed increase in ROS levels could lead to oxidative stress and extensive cell death in the absence of NADPH detoxification.
CRC cells (1 × 10^4) were seeded into a 96-well plate overnight. Cells were treated with test compounds or vehicle (negative control) glucose-free RPMI-1640 medium for 16 h; then, the cells were incubated with 2 mM 2-DG for 10 minutes. Eventually, glucose uptake of cells was measured using Glucose Uptake-Glo Assay (Promega, Madison, WI, USA) according to the manufacturer’s instructions. Luminescence was measured post 2 h of incubation at room temperature using Varioskan Flash multimode reader (Thermo Scientific). Glucose uptake was normalized to the total protein content in the samples using DC protein assay kit (Bio-Rad, Hercules, CA, USA).

[2] = test system: Caspase 3/7 activities in HCT116 cells; assay: Caspase 3/7 activity assay, HCT116; type: cell-based, Human; settings: HCT116, 72 h
Procedure: Based on this, the energy restriction mediated anticancer activity of the new coumarin tagged aminothiazole derivatives was investigated. The expression levels of PARP, p-Akt, Akt, p-AMPK, AMPK, β-TrCP, LC3A/B-I, LC3A/B-II, caspase-3, cyclin D1, and Bcl-2 proteins were determined by Western blot analysis after 72 h treatment of HT-29 and HCT116 at different concentrations based on the IC50 values of each compound (Fig. 3A,B). […] Moreover, the treatment with 9b and 9f induced caspase 3/7 activation, which was detected by caspase 3/7 activity assay and confirmed by Western blot. The activation of caspases was significant in 9b in both cell lines and significant with 9f in HCT116 cells only and minimal in HT-29 cells (Fig. 3C,D). On the other hand, both 9b and 9f induced dose-dependent proteolytic processing of PARP. […] Besides, the protein expression level of the anti-apoptotic protein, Bcl-2, was reduced in HCT116 upon treatment with both compounds.
Caspase-3/7 activities in HT-29 and HCT116 cells treated with candidate compounds were measured using Caspase-Glo 3/7 assay kit (Promega, Madison, WI, USA) following the manufacturer’s instructions. […] 50 µL of lysate and 50 µL of caspase substrate were added to a white opaque 96-well plate, and the luminescence was measured by Varioskan Flash multimode reader (Thermo-Scientific, Vantaa, Finland)

HT-29 [3] = assay: ROS-Glo H2O2 assay, HT-29; type: cell-based, Human; settings: HT-29, 6 h incubation
Source text: as §1
NADPH/NADP+ and ROS concentrations were measured using the NADP/NADPH-Glo Assay Kit (Promega, Madison, WI, USA) and ROS-Glo H2O2 Assay (Promega, Madison, WI, USA), respectively, based on the manufacturer instructions. In NADPH/NADP+ assay, CRC cells were seeded into a 96-well flat-bottomed plate and incubated overnight. On the following day, cells were treated with the testing compound or vehicle for 48 h. At the endpoint of treatment, the media were aspirated and replaced with 60 µl PBS/well, then cells were lysed in 60 µl base solution with 1% dodecyl (trimethyl) ammonium bromide (Sigma-Aldrich-St. Louis, MO, USA). […] Luminescence was measured after 30 minutes using Varioskan Flash multimode reader (Thermo Scientific). […] Luminescence was measured after 20 min incubation at room temperature.

[4] = test system: normal fibroblast cell line (F180); assay: MTT cell viability, normal fibroblasts F180; type: cell-based; settings: Homo sapiens, read-out: IC50 on normal cells
Procedure: The potential cytotoxicity of 24 candidate compounds was initially evaluated at a single concentration level (5 μM). Then a full dose-response curve was plotted for each compound against different colorectal cancer cell lines (HCT116 and HT-29) by MTT assay after 72 h treatments. 4-hydroxycoumarin, OSU-CG5, and OSU-CG12 were used as positive controls. […] Compounds 9b, 9c, 9f, 9i, 11b, and 11c were selected for further studies to determine the full dose-response survival curves using different concentrations (0.1–20 µM) against CRC cell lines and normal fibroblast cell line (F180) at different time points (Fig. 2A–2F and supplementary material Page S63 and S64).
Human colorectal carcinoma cell lines (HCT116) and (HT-29) were obtained from the European Collection of Cell Cultures (ECACC, UK). The cell lines were cultured in Roswell Park Memorial Institute medium (RPMI-1640, Sigma-Aldrich-St. Louis, MO, USA) supplemented with 10% fetal bovine serum (Sigma-Aldrich-St. Louis, MO, USA) and 1% penicillin/streptomycin (Sigma-Aldrich- Louis, MO, USA). […]
Cell viability was assessed using, 3-(4,5-dimethylthiazol-2-yl)-2,5-diphenyltetrazolium bromide (MTT) assay as previously described. […] The reduced MTT crystals were solubilized in 200 µl/well of DMSO and the absorbance was measured at 570 nm using a microplate reader (Thermo-Scientific, Vantaa, Finland).

Structure (SMILES) | glucose uptake (HT-29 [1]) | activation of caspases (caspase 3/7) [2] | generation of hydrogen peroxide (H2O2) and ROS (HT-29 [3]) | IC50 [4] [µM]
Cc1cc(=O)oc2cc(Nc3nc(-c4ccc(Br)cc4)cs3)ccc12 [Compound 9b, 7-(4-(4-Bromophenyl)thiazol-2-ylamino)-4-methyl-2H-chromen-2-one] | inhibited significantly | significant | significantly increased | –
Cc1cc(=O)oc2cc(Nc3nc(-c4cccc([N+](=O)[O-])c4)cs3)ccc12 [Compound 9f, 4-Methyl-7-(4-(3-Nitrophenyl)thiazol-2-ylamino)-2H-chromen-2-one] | inhibited significantly | significant | – | 7.97
